# Laboratory results reported in the SangsterLogP compilation.
# Experiments:
# [1] = method code SF, from DOI: 10.1021/jm00151a007, PMID: 3941412; settings: pH 9.0
# [2] = method code SF-AS, from DOI: 10.1016/0891-5849(92)90146-8, PMID: 1334029; settings: pH 2.0
# [3] = method code SF-AS, from PMID: 1042; settings: pH 7.4
# [4] = from Gehmann, K., Nyfeler, R., Leadbeater, A. J., Nevill, D. J., & Sozzi, D. (1990). CGA 173506: A new phenylpyrrole fungicide for broad-spectrum disease control. In Brighton Crop Protection Conference, …
# [5] = method code SF-HPLC, from DOI: 10.1016/j.ejmech.2008.06.022, PMID: 18687506; settings: pH 7.4
# [6] = method code SF-AS, from DOI: 10.1111/j.2042-7158.1988.tb06996.x, PMID: 2907534; settings: pH 7.0
# [7] = from Tomlinson, E.; Davis, S.; Parr, G.; James, M.; Farraj, N.; Kinkel, J.; Gaisser, D.; Wynne, H. (1986). The filter-probe extractor: a versatile tool for the rapid determination of solute oil/water …
# [8] = method code SF-AS, from DOI: 10.5012/bkcs.2007.28.7.1183
# [9] = not given; remark: listed apart in the source
# [10] = method code SF-F, from DOI: 10.1021/js950367f, PMID: 8901074
# [11] = not given; remark: listed apart in the source
# [12] = method code SF-HPLC, from DOI: 10.1016/0378-5173(95)00102-o
# [13] = method code SF-GLC, from Hashimoto, S.; Schneider, S.; Yamamoto, T.; Morita, M. (1994). Aqueous solubility and octanol-water partition coefficient of 3,3',4,4'-tetrachloroazobenzene. 20, 125-128.
# [14] = not given; remark: listed apart in the source
# [15] = method code SF-AS, from PMID: 582409; settings: pH 7.4
# [16] = method code SF-AS, from DOI: 10.1016/0014-5793(79)80862-5, PMID: 478007
# [17] = method code SF, from DOI: 10.1016/0223-5234(94)90060-4; settings: pH 7.4
# [18] = method code SF, from PMID: 7412765; settings: pH 7.0
# [19] = not given; remark: listed apart in the source
# [20] = method code SF-RC, from DOI: 10.1021/jf60204a016
# [21] = not given; remark: listed apart in the source
# [22] = method code SF-HPLC, from DOI: 10.1002/ps.2780440103; settings: pH 2.0
# [23] = not given; remark: listed apart in the source
# [24] = method code SF-HPLC, from DOI: 10.1002/ps.2780170106; settings: pH 2.0
# [25] = method code SF, from DOI: 10.1016/0304-4165(80)90351-7, PMID: 6243999; settings: pH 7.4
# [26] = method code SF-RC, from DOI: 10.1016/j.bmc.2005.04.014, PMID: 15911305; settings: pH 7.4
# [27] = method code SF-RC, from DOI: 10.1016/j.nucmedbio.2008.01.001, PMID: 18355684; settings: pH 7.4
# [28] = not given; remark: listed apart in the source
# [29] = method code SF, from DOI: 10.1016/s0223-5234(98)80007-x
# [30] = not given; remark: listed apart in the source
# [31] = not given; remark: listed apart in the source
# [32] = method code SF-AS, from DOI: 10.1016/j.ejmech.2007.07.011, PMID: 17869385; settings: pH 7.4
# [33] = not given; remark: listed apart in the source
# [34] = method code SF-AS, from PMID: 578762; settings: pH 7.4
# [35] = not given; remark: listed apart in the source
# [36] = not given; remark: listed apart in the source
# [37] = method code G-GLC, from DOI: 10.1021/es00171a006
# [38] = not given; remark: listed apart in the source
# [39] = not given; remark: listed apart in the source
# [40] = not given; remark: listed apart in the source
# [41] = not given; remark: listed apart in the source
# [42] = method code SF-RC, from DOI: 10.1111/j.1399-3054.1990.tb08712.x
# [43] = not given; remark: listed apart in the source
# [44] = method code SF, from DOI: 10.1021/jf60167a006
# [45] = method code SF-GLC, from DOI: 10.1016/s0380-1330(82)71969-0
# [46] = method code SF-HPLC, from DOI: 10.3109/03639045.2012.690417, PMID: 22670797
# [47] = pH 9.2
# [48] = method code SF-AS, from PMID: 7646571; settings: pH 7.0
# [49] = method code SF, from DOI: 10.1002/ps.2780290303; settings: pH 5.0
# [50] = not given; remark: listed apart in the source
compound,measurement,setting,value
CNc1c(NCCSCc2nc[nH]c2C)c(=O)c1=O,logD,[1],-0.08
CC(=O)C(=Cc1cc(O)c(O)c([N+](=O)[O-])c1)C(C)=O,logD,[2],1.21
CNC(=O)OCc1nc(SC)n(C)c1COC(=O)NC,logP,,0.74
CCCCOc1ccc(CC(=O)NO)cc1,logD,[3],2.08
N#Cc1c[nH]cc1-c1cccc2c1OC(F)(F)O2,logP,[4],2.6
CC(=O)NCC(=O)NN=Nc1ccc(C#N)cc1,logD,[5],1.1
CCC1(c2ccccc2)C(=O)NC(=O)NC1=O,logD,[6],1.32
CNC(=O)[C@H](Cc1ccccc1)NC(C)=O,logP,[7],0.5
Cc1cc(C)nc(NS(=O)(=O)c2ccc(N)cc2)n1,logP,[8],0.21
CC1=C(C)C(O)N(c2ccccc2)C1=O (stereo unspecified),logP,[9],1.63
COc1c2ccoc2cc2oc(=O)ccc12,logP,[10],2
CN1C(=O)NC(=O)C(C)(C2=CCCCC2)C1=O (stereo unspecified),logP,[11],1.71
CCCCCCOC(=O)c1cccnc1,logP,[12],3.51
Clc1ccc(/N=N/c2ccc(Cl)c(Cl)c2)cc1Cl,logP,[13],5.53
Cc1cccc2cccc(C)c12,logP,[14],4.26
Nc1nc(N)c2nc(-c3ccc(O)cc3)c(N)nc2n1,logD,[15],0.92
C#CC(C)N(C)C(=O)Nc1ccc(Cl)cc1 (stereo unspecified),logP,[16],3
CC(=O)Nc1ccn(C2CSC(COC(C)=O)O2)c(=O)n1 (stereo unspecified),logD,[17],0.88
CCCC(C)C1(CC)C(=O)NC(=O)NC1=O (stereo unspecified),logD,[18],1.75
CCC(O)(CCC(N)=O)c1ccccc1 (stereo unspecified),logP,[19],2.11
CC(C)c1onc2nc(C(C)(C)C)[nH]c(=O)c12,logP,[20],2.34
COc1ccc(Cc2cnc(N)nc2N)cc1Cl,logP,[21],1.65
O=C(O)[C@H]1O[C@@H](Oc2ccc([N+](=O)[O-])cc2)[C@H](O)[C@@H](O)[C@@H]1O,logD,[22],-0.75
CC[C@@H]1C(=O)OC[C@@H]1Cc1cncn1C,logP,[23],0.66
O=C(O)COc1cccc2ccccc12,logD,[24],2.6
CC(=O)NC1CC(C)(C)N(O)C(C)(C)C1,logD,[25],0.52
Nc1nc(OCc2cccc(I)c2)c2nc[nH]c2n1,logD,[26],2.2
CCCSc1nsnc1C1=CCCN(C)C1,logD,[27],2.9
CCNc1nc(NC(C)C(C)C)nc(SC)n1 (stereo unspecified),logP,[28],3.76
Cc1nc2n(c1C)CNc1ccccc1-2,logP,[29],2.07
CCCCCOc1ccc(O)cc1,logP,[30],3.26
Nc1nc(N)c2nc(-c3ccccc3)c(N)nc2n1,logP,[31],1.24
Cc1c(O)c(=O)ccn1CCCn1ccnc1,logD,[32],-0.46
O=[N+]([O-])c1nccn1CC(O)COc1ccccc1 (stereo unspecified),logP,[33],1.4
CCOC(=O)/C=C1\SC(N2CCCC2)C(=O)N1C (stereo unspecified),logD,[34],2
CCCCCOC(=O)c1ccc(O)cc1,logP,[35],3.65
CCC(N)C(=O)Nc1c(C)cccc1C (stereo unspecified),logP,[36],0.84
Clc1c(Cl)c(Cl)c2c(oc3c(Cl)c(Cl)c(Cl)c(Cl)c32)c1Cl,logP,[37],7.59
Clc1cc2c(oc3c(Cl)c(Cl)c(Cl)cc32)c(Cl)c1Cl,logP,[38],6.6
Clc1cc(Cl)c(-c2cc(Cl)c(Cl)cc2Cl)cc1Cl,logP,[39],6.67
CCc1cccc2ccccc12,logP,[40],4.38
c1nnnn1C12CC3CC(CC(C3)C1)C2,logP,[41],2.95
O=C(O)Cc1cccc2ccccc12,logP,[42],2.24
O=C(O)CCCn1c(=O)oc2ccccc2c1=O,logP,[43],0.2
CCOP(=O)(OCC)Oc1ccc(S(C)(=O)=O)cc1,logP,[44],0
Clc1cc(-c2ccccc2)c(Cl)c(Cl)c1Cl,logP,[45],5.9
CC(C)(C)c1ccc(NC(N)=S)cc1,logP,[46],2.6
CC(C)CNCNC(=O)c1ccccc1,logD,[47],1.73
Cn1c(=O)[nH]c2ncn(CC(C)(C)C)c2c1=O,logD,[48],0.6
COC(=O)c1sccc1S(=O)(=O)NC(=O)Nc1nc(OC)nc(OC)n1,logD,[49],0.52
CC1(C)NC(=O)N(c2ccc([N+](=O)[O-])c(C(F)(F)F)c2)C1=O,logP,[50],2.31
